Binding and EC50 data for 2 molecules are collected here from PMC5750238 (2018).

Experiment [1] relates to 2H-AE construct (RNA, other) GGAAUUCAGGAGCUCGGGAGCGUCCACUGCUCCUGAGCGCUCCAGUGGACGGAGCCCUGGUGAAGCCUCCACGCCAGGUCCUGGAUUCCGCAUGUAUCGAGGACUGAAGGAGGCACGGUCCCACGGGCUCCGAGACGUGGAGUCCGUGUCCGCACGUCUCGCGGAUCGAUGCAUGC
Kind of experiment: fluorescence activation. The note with it: 125 mM KCl, 1 mM MgCl2; 1x TB assembly buffer; no fluorescence activation.

The test system of experiment [2] is Mango construct (RNA, aptamer) GGGAGAUCGUCCUAAGCGCUUUCGAGCGUUUAGCCUGGGUCGCGAAGGGACGGUGCGGAGAGGAGAGCGACUCAGGGAUGGUGAAGCCUCCACGCCAUCGACGGUCUCCCGAUACUCAUCGCGACUGAAGGAGGCACGGUCGGCAUUGUACUUCGGUACGAUGCGCAAGCGACUUCGGUCGUUUGCCGAUGGGUAUC
Description: fluorescence activation. Conditions: 125 mM KCl, 1 mM MgCl2; 1x TB assembly buffer; EC50 given as N/A; titration to 2 µM.

Experiment [3] has as its system Spinach construct (RNA, aptamer) GGGAGAUGCUCCCAGUUACAUUCGUGUAGCUGGCCGUGCGGUAAGGACGGGUCCCUAGCUAAUUCGUUAGUUAGGUUGAGUAGAGUGUGAGACCGUACGGGCUGGUGAAGCCUCCACGCCAGCGAGCGUCUCCCGCAUGGCAACGCGACUGAAGGAGGCACGGUCGGCCAUCGGUUUCGACCGGUGGCGGUAGAGCCUUCGGGCUUUACCCGUUGUCAUGC
Description: fluorescence titration of RNA with fluorophore. The note with it: 125 mM KCl, 1 mM MgCl2, 1x TB assembly buffer, 20 nM RNA, apparent.

The test system of experiment [4] is Broccoli construct (RNA, aptamer) GGGAGAUGCUCCCAGUUACAUUCGUGUAGCUGGCCGUGCGAGACGGUCGGGUCCAUAGCUAAUUCGUUAGUUAUGUCGAGUAGAGUGUGGGCUCGUACGGGCUGGUGAAGCCUCCACGCCAGCGAGCGUCUCCCGCAUGGCAACGCGACUGAAGGAGGCACGGUCGGCCAUCGGUUUCGACCGGUGGCGGUAGAGCCUUCGGGCUUUACCCGUUGUCAUGC
Description: fluorescence titration of RNA with fluorophore. Conditions: 125 mM KCl, 1 mM MgCl2; 1x TB assembly buffer; 20 nM RNA; fluorophore 1 nM to 2 µM; apparent.

The test system of experiment [5] is Mango construct (RNA, aptamer) GGGAGAUCGUCCUAAGCGCUUUCGAGCGUUUAGCCUGGGUCGCGAAGGGACGGUGCGGAGAGGAGAGCGACUCAGGGAUGGUGAAGCCUCCACGCCAUCGACGGUCUCCCGAUACUCAUCGCGACUGAAGGAGGCACGGUCGGCAUUGUACUUCGGUACGAUGCGCAAGCGACUUCGGUCGUUUGCCGAUGGGUAUC
Description: fluorescence titration of RNA with fluorophore. Conditions: 125 mM KCl, 1 mM MgCl2; 1x TB assembly buffer; 20 nM RNA; fluorophore 1 nM to 2 µM; apparent.

By EC50 is commonly meant the midpoint of the concentration-response curve. Consider `CC1=N/C(=C\c2cc(F)c(O)c(F)c2)C(=O)N1CC(F)(F)F`, for which the binding result in experiment [1] and in experiment [2] was “no” in each case. Moreover, the figures for the EC50 in experiment [3] (fluorophore 1 nM to 2 µM) and in experiment [4] were 337.5 nM and 598.9 nM, respectively.

As for `CN1C=CC(=CC=Cc2oc3ccccc3[n+]2CC(=O)NCCOCCOCCOCCNC(=O)CCCC[C@@H]2SC[C@@H]3NC(=O)N[C@@H]32)c2ccccc21`, the EC50 in experiment [5] was determined as 25.6 nM; in experiment [3] (fluorophore 1 nM to 2 µM (value above range)) it was 3920 nM; in experiment [4], 1700 nM.
